Test results published in US9732322B2, “Compositions for mesoderm derived ISL1+ multipotent cells (IMPs), epicardial progenitor cells (EPCs) and multipotent C56C cells (C56Cs) and methods of producing and using same” (UNIVERSITY OF GEORGIA RESEARCH FOUNDATION, INC., priority 2008, dated 2017).

Key:
[1] = target: T1, CXCR4 receptor (Homo sapiens, UniProt P61073); test: Boyden chamber migration assay of C56C cells; format: cell-based
T1 construct: endogenous in cells; host or cells: C56C cells (CXCR4+ CD56+), differentiated from MMCs derived from human pluripotent stem cells
Method: FIG. 61. To investigate the mechanisms by which C56Cs migrate towards ischemic/damaged tissue we assayed these cells in a Boyden chamber assay. 300,000 C56C cells were seeded in the upper chamber of a Boyden chamber.
To investigate the mechanisms by which C56Cs migrate towards ischemic/damaged tissue we assayed these cells in a Boyden chamber assay. 300,000 C56C cells were seeded in the upper chamber of a Boyden chamber.

[2] = tested on: Isl1+ IMP (Spl-m) cells; test: Stage 2 differentiation of Isl1+ IMPs/Spl-m to Wt1+ epicardial progenitor (PE-like) cells; format: cell-based, human; conditions: for Erk activation in Isl1+ Spl-m: immunoblot, phospho-Erk1,2
Method: hESC/hFib2-iPS4 hiPSCs grown in StemPro defined media/defined media were differentiated into IMPs (as described above and elsewhere). At day 4, IMP cell stage, the defined media was supplemented with BMP4 (50 ng/ml, range about 2-100 ng/ml, R&D Systems), Wnt3a (25 ng/ml, range about 1-100+ng/ml, R&D Systems) and all-trans retinoic acid (4 μM, range about 0.25-25 μM Sigma), media changed every 2 (1-4 days) days, for about 10-16 days (about 7-25 days) (FIG. 39). The expression of Wt-1, Tbx18, Raldh2 and Tcf21 (epicardin) were confirmed by Q-PCR (FIGS. 40, 42) and Wt-1 by immunofluorescence (FIG. 41). This method typically gives cultures that are >80% positive for Wt1.
(§1) WA01, WA07, WA09, BG01 and BG02 hESCs and Fib-iPS4 hIPSCs^28 were adapted from mouse embryo fibroblast feeder-based culture conditions to feeder-free growth in chemically defined media (CDM) using single cell suspensions^50. Briefly, CDM is composed of DMEM/F12 (Mediatech), 2% probumin (Bovine Serum Albumin fraction V) biotech grade (Millipore), 1× nonessential amino acids, 50 U/mL penicillin, 50 μg/mL streptomycin, 1× trace elements A, B, C (all from Mediatech), 10 μg/mL transferrin, 0.1 mM […] (Gibco), 50 μg/mL ascorbic acid (Sigma), 8 ng/mL bFGF (Invitrogen), 200 ng/mL LR-IGF (Sigma), 10 ng/mL Activin A (R and D Systems) and 10 ng/mL […] (Peprotech). Cells were passaged every 4-5 d using Accutase (Innovative Cell Technologies) to form a single cell suspension and then plated onto plates coated with 1:200 Geltrex (Invitrogen) at a cell density of 7.5×10^4 cells/cm^2 at 37° C. in 5% CO2. Media was changed every 24 h. To differentiate hESC in Stage 1 (FIG. 62), cells were plated at a density of 5.1×10^4 cells/cm^2 into CDM containing 25 ng/mL rmWnt3a and 100 ng/mL rhBMP4 (R&D Systems). Cells were cultured at 37° C. in 5% CO2 and media changed every 24 h for 4-6 d. CDM for Stage 2 of differentiation was supplemented with 25 ng/mL rmWnt3a, 50 ng/mL rhBMP4 with either 100 ng/ml Fgf2 or 4 μM all-trans retinoic acid (Sigma), changing media every 48 h for 10-16 d. For Stage 3 differentiation, Stage 2 cells were passaged at day 16 into CDM without Activin A, supplemented with 10 ng/mL rhVEGF-A165 (R&D Systems). All bright field images were acquired on a Leica DMIL microscope.
Progenitor cells of the coronary vasculature are believed to reside in the PE and after forming the epicardium, seed the myocardium for future vessel formation. Many unanswered questions remain as to the characteristics of these progenitor cells but clearly, a better understanding of PE development will provide significant insight into this question. Lineage tracing studies in vivo indicate that PE and epicardium forms from an Isl1^+ Nkx2.5^+ progenitor^6, 18, 29. […]

[3] = tested on: hESC-derived Wt1+ PE cells (EPCs); test: Stage 3 differentiation of Wt1+ EPC/PE cells to smooth muscle and endothelial cells, immunostaining; format: cell-based, human; conditions: VEGF 10 ng/ml, 10 days
Method: WA01, WA07, WA09, BG01 and BG02 hESCs and Fib-iPS4 hIPSCs^28 were adapted from mouse embryo fibroblast feeder-based culture conditions to feeder-free growth in chemically defined media (CDM) using single cell suspensions^50. Briefly, CDM is composed of DMEM/F12 (Mediatech), 2% probumin (Bovine Serum Albumin fraction V) biotech grade (Millipore), 1× nonessential amino acids, 50 U/mL penicillin, 50 μg/mL streptomycin, 1× trace elements A, B, C (all from Mediatech), 10 μg/mL transferrin, 0.1 mM 3-mercaptoethanol (Gibco), 50 μg/mL ascorbic acid (Sigma), 8 ng/mL bFGF (Invitrogen), 200 ng/mL LR-IGF (Sigma), 10 ng/mL Activin A (R and D Systems) and 10 ng/mL Heregulin 13 (Peprotech). Cells were passaged every 4-5 d using Accutase (Innovative Cell Technologies) to form a single cell suspension and then plated onto plates coated with 1:200 Geltrex (Invitrogen) at a cell density of 7.5×10^4 cells/cm^2 at 37° C. in 5% CO2. Media was changed every 24 h. To differentiate hESC in Stage 1 (FIG. 62), cells were plated at a density of 5.1×10^4 cells/cm^2 into CDM containing 25 ng/mL rmWnt3a and 100 ng/mL rhBMP4 (R&D Systems). Cells were cultured at 37° C. in 5% CO2 and media changed every 24 h for 4-6 d. CDM for Stage 2 of differentiation was supplemented with 25 ng/mL rmWnt3a, 50 ng/mL rhBMP4 with either 100 ng/ml Fgf2 or 4 μM all-trans retinoic acid (Sigma), changing media every 48 h for 10-16 d. […]

[4] = tested on: WA09 hESCs; test: Stage 1 differentiation of WA09 hESCs to Isl1+ splanchnic mesoderm; Q-PCR, immunostaining, flow cytometry; format: cell-based, human; conditions: for differentiation / gene expression changes with single factor alone: data not shown
Method: as §1, with “To differentiate hESC in Stage 1 (FIG. 62), cells were plated at a density of 5.1×10^4 cells/cm^2 into CDM containing 25 ng/mL rmWnt3a and 100 ng/mL rhBMP4 (R&D Systems).” left out
Cells were collected as single cell suspensions following harvesting with Accutase and then analyzed using a Cyan flow cytometer (Dako). Cells were blocked with species-specific serum for 30 min followed by blocking with CD16/32 (eBiosciences) for a further 15 min then, with specific antibodies shown in FIG. 81, Table 4. Immunofluorescence was performed on 4% paraformaldehyde-fixed cells in the presence of 10% donkey serum and 0.25% Triton X100 followed by visualization using 2.5% donkey serum in PBS with fluorescent conjugated secondary antibodies. DAPI (Sigma) was used to counterstain nuclei. […]

c1cc(CN2CCCNCCNCCCNCC2)ccc1CN1CCCNCCNCCCNCC1 [AMD3100]
migration of C56C cells towards SDF1 ([1]; antagonist added): blocked

CC1=C(/C=C/C(C)=C/C=C/C(C)=C/C(=O)O)C(C)(C)CCC1 [RA, All-trans retinoic acid, reference compound]
treated cells expressing Wt1, Raldh2 and Tbx20 ([2]; RA 4 μM with Wnt3a and BMP4, immunofluorescence): More than 90% | Erk activation in Isl1+ Spl-m [2]: activated Erk

Fgf2: fibroblast growth factor 2
transcripts expressed in PE/epicardium (Wt1, Raldh2, Tbx18, Tbx5) ([2]; Fgf2 100 ng/ml after 4 days of Wnt/BMP): dramatic increases | Erk activation in Isl1+ Spl-m [2]: activated Erk

SDF1: SDF1 cytokine
migration of C56C cells towards cytokine in lower chamber ([1]; 300,000 C56C cells in upper chamber): responsive and migrate towards

VEGF
cells positive for CD31 and VE-cadherin (endothelial cells) [3]: 10-20% | cells positive for SMA and calponin (smooth muscle cells) [3]: 80-90%

B1: BMP4: bone morphogenic protein 4 (protein, UniProt P12644 293-408, looked up)
Bone morphogenetic protein 4: SPKHHSQRARKKNKNCRRHSLYVDFSDVGWNDWIVAPPGYQAFYCHGDCPFPLADHLNSTNHAIVQTLVNSVNSSIPKACCVPTELSAISMLYLDEYDKVVLKNYQEMVVEGCGCR
differentiation / gene expression changes with single factor alone [4]: promoted differentiation

B2: Dkk1: Wnt antagonist Dkk1 (protein, UniProt O94907 32-266, looked up)
Dickkopf-related protein 1: TLNSVLNSNAIKNLPPPLGGAAGHPGSAVSAAPGILYPGGNKYQTIDNYQPYPCAEDEECGTDEYCASPTRGGDAGVQICLACRKRRKRCMRHAMCCPGNYCKNGICVSSDQNHFRGEIEETITESFGNDHSTLDGYSRRTTLSSKMYHTKGQEGSVCLRSSDCASGLCCARHFWSKICKPVLKEGQVCTKHRRKGSHGLEIFQRCYCGEGLSCRIQKDHHQASNSSRLHTCQRH
BMP4-dependent differentiation of hESCs without exogenous Wnt3a ([4]; Dkk1 150 ng/ml with BMP4 50 ng/ml): blocked

B3: Wnt3a: wingless (Wnt) protein (protein, UniProt P56704 19-352, looked up)
Protein Wnt-3a: SYPIWWSLAVGPQYSSLGSQPILCASIPGLVPKQLRFCRNYVEIMPSVAEGIKIGIQECQHQFRGRRWNCTTVHDSLAIFGPVLDKATRESAFVHAIASAGVAFAVTRSCAEGTAAICGCSSRHQGSPGKGWKWGGCSEDIEFGGMVSREFADARENRPDARSAMNRHNNEAGRQAIASHMHLKCKCHGLSGSCEVKTCWWSQPDFRAIGDFLKDKYDSASEMVVEKHRESRGWVETLRPRYTYFKVPTERDLVYYEASPNFCEPNPETGSFGTRDRTCNVSSHGIDGCDLLCCGRGHNARAERRREKCRCVFHWCCYVSCQECTRVYDVHTCK
differentiation / gene expression changes with single factor alone [4]: None of the gene expression changes
